Laboratory results published in patent US4327097A, “Novel penicillins” (Toyama Chemical Co., Ltd., priority 1974, dated 1982).
≈ marks a conversion by molar mass, not a printed value.

Experiments:
[1] = tested on: Escherichia coli NIHJ; test: MIC, plate method, standard strains; assay type: cell-based; conditions: unit assumed; for MIC Escherichia coli NIHJ: Table 4, standard strain
Procedure: (§1) The minimum inhibitory concentration (MIC) was determined by the plate method disclosed in "Chemotherapy" (Japan), Vol. 16, (1968), pages 98-99. The culture medium used was a Heart infusion agar (pH 7.4). The number of the cells per plate used in the inoculum was 10^4 (10^6 cells/ml).

[2] = tested on: Klebsiella pneumoniae; test: MIC, plate method, standard strains; assay type: cell-based; conditions: unit assumed
Procedure: as §1

[3] = tested on: Proteus vulgaris 3027; test: MIC, plate method, standard strains; assay type: cell-based; conditions: unit assumed
Procedure: as §1

[4] = tested on: Pseudomonas aeruginosa I.F.O.; test: MIC, plate method, standard strains; assay type: cell-based; conditions: unit assumed; for MIC Pseudomonas aeruginosa I.F.O.: Table 4, standard strain
Procedure: as §1

[5] = tested on: Staphylococcus aureus 209p; test: MIC, plate method, standard strains; assay type: cell-based; conditions: unit assumed
Procedure: as §1

[6] = tested on: Staphylococcus aureus; test: MIC against clinical isolates; assay type: cell-based; conditions: Table 5-1, clinical isolate; unit assumed
[7] = tested on: Escherichia coli; test: MIC against clinical isolates; assay type: cell-based; conditions: Table 5-2, clinical isolate; unit assumed
[8] = tested on: Pseudomonas aeruginosa; test: MIC against clinical isolates; assay type: cell-based; conditions: unit assumed
[9] = tested on: Klebsiella pneumoniae; test: MIC against clinical isolates; assay type: cell-based; conditions: Table 5-4, clinical isolate; unit assumed
[10] = tested on: Shigella flexneri; test: MIC against clinical isolates; assay type: cell-based; conditions: Table 5-5, clinical isolate; unit assumed
Procedure: as §1
(§2) MIC was determined in the same manner as in the preceding paragraph (1).

[11] = tested on: Shigella sonnei; test: MIC against clinical isolates; assay type: cell-based; conditions: Table 5-5, clinical isolate; unit assumed
Procedure: as §1, §2

[12] = tested on: Salmonella typhi-murium; test: MIC against clinical isolates; assay type: cell-based; conditions: Table 5-5, clinical isolate; unit assumed
[13] = tested on: Proteus vulgaris; test: MIC against clinical isolates; assay type: cell-based; conditions: Table 5-6, clinical isolate; unit assumed
[14] = tested on: β-lactamase, Pseudomonas aeruginosa GN 238; test: Resistant activity against β-lactamase, iodometric assay; assay type: biochemical; conditions: β-lactamase from Pseudomonas aeruginosa GN 238; Potassium Penicillin G = 100
Procedure: (3) Resistant activity against β-lactamase, Pseudomonas aerugionsa GN 238:
The resistant activity of each compound against β-lactamase was measured in the manner described below.
β-Lactamase was prepared from Pseudomonas aeruginosa GN 238. This microorganism was cultured in 100 ml of a medium containing 2 g of yeast extract, 10 g of polypeptone, 2 g of glucose, 7 g of disodium hydrogen phosphate, 2 g of potassium dihydrogen phosphate, 1.2 g of ammonium sulfate and 0.4 g of magnesium sulfate, per liter, in a 500-ml Erlenmeyer flask for 6 hrs. at 37° C. with shaking. The resulting cells were collected by centrifugation (5,000 r.p.m.×10 min.), washed three times with 0.1 M phosphate buffer (pH 7.0). Subsequently, the cells were subjected to sonication (20 KHz, 20 min.) and then centrifuged at 15,000 r.p.m. for 60 min. By using the supernatant of enzyme fluid, the resistance of each compound against β-lactamase was determined by the iodometric assay method. Each numeral shown in Table 7 is a relative activity value calculated by assuming as 100 the activity of the control Potassium Penicillin G.

[15] = target: β-lactamase, Escherichia freundii GN 346 (Citrobacter freundii, UniProt Q46041); test: as above; assay type: biochemical; conditions: control Cephalorizine = 100
Procedure: (§3) (4) Resistant activity of each cephalosporin compound against β-lactamase, Proteus vulgaris GN 76 and Escherichia freundii GN 346:
(§4) The resistant activity of each cephalosporin compound against β-lactamase was measured in the manner described below.
(§5) β-lactamase was prepared from Proteus vulgaris GN 76 and Escherichia freundii GN 346. 10 ml of an overnight culture in Heart Infusion broth was diluted with 100 ml of a medium containing 2 g of yeast extract, 10 g of polypeptone, 2 g of glucose, 7 g of disodium hydrogen phosphate, 2 g of potassium dihydrogen phosphate, 1.2 g of ammonium sulfate and 0.4 g of magnesium sulfate, per liter, and incubated with shaking at 37° C. After incubation of 2 hrs, Penicillin G (50 μg/ml) was added as the inducer, and further incubated for 2 hrs. The resulting cells were collected by centrifugation (5,000 r.p.m.×10 min.) and washed two times with 0.1 M phosphate buffer (pH 7.0). Subsequently, the cells were subjected to sonication (20 KHz, 5 min.) and then centrifuged at 15,000 r.p.m. for 60 min. By using the supernatant of enzyme fluid, the stability of each compound against β-lactamase was determined by the iodometric assay method. Each numeral shown in Table 7-2 is a relative activity value calculated by assuming as 100 the activity of the control Cephalorizine.

[16] = target: T1, β-lactamase, Proteus vulgaris GN 76 (Proteus vulgaris, UniProt P52664); test: as above; assay type: biochemical; conditions: control Cephalorizine = 100
T1 construct: By using the supernatant of enzyme fluid; endogenous in cells; host or cells: Proteus vulgaris GN 76 (penicillin G-induced cells, sonicated, 15,000 r.p.m. supernatant)
Procedure: as §3, §4, §5

T1 sequence (P52664 30-300): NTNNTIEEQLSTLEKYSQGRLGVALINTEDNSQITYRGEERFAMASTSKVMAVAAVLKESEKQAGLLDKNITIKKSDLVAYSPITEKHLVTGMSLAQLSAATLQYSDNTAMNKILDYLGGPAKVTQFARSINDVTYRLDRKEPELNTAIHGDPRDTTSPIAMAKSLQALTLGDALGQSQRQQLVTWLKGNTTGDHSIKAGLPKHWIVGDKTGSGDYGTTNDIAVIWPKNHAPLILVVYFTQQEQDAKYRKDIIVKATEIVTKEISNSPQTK
Sequence of β-lactamase, Escherichia freundii GN 346 (Q46041 entry or part of it): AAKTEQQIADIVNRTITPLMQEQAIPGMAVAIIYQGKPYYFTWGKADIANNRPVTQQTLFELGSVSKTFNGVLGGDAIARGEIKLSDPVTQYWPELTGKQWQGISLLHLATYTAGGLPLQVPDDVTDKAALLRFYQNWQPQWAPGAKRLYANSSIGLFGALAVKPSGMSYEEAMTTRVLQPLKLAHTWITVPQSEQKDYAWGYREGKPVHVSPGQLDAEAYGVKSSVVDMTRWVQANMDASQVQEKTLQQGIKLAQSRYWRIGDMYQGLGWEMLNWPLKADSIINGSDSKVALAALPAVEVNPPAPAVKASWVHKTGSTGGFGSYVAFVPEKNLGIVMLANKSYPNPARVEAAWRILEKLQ

SMILES: CN1CCN(C(=O)NC(C(=O)NC2C(=O)N3C2SC(C)(C)C3C(=O)O)c2ccccc2)C(=O)C1=O (single isomer, unassigned) [Compound 37]
- MIC Esche--richin coil NIHJ ([1]; Table 3, standard strain): < 1.57 µg/mL
- MIC Klebsiella pneumoniae ([2]; Table 3, standard strain): 6.25 µg/mL (≈ 12.4 µM)
- MIC Proteus vulgaris 3027 ([3]; Table 3, standard strain): < 1.57 µg/mL
- MIC Pseudomonas aeruginosa I.F.C ([4]; Table 3, standard strain): 6.25 µg/mL (≈ 12.4 µM)
- MIC Staphylococcus aureus 209p ([5]; Table 3, standard strain, Heart infusion agar pH 7.4): < 1.57 µg/mL
- MIC Staphylococcus aureus F-1 [6]: 12.5 µg/mL (≈ 24.8 µM)
- MIC Staphylococcus aureus F-3 [6]: 3.13 µg/mL (≈ 6.22 µM)
- MIC Staphylococcus aureus F-4 [6]: 6.25 µg/mL (≈ 12.4 µM)
- MIC Staphylococcus aureus F-5 [6]: > 200 µg/mL
- MIC Staphylococcus aureus MS 8588 [6]: 3.13 µg/mL (≈ 6.22 µM)
- MIC Staphylococcus aureus MS 8596 [6]: 3.13 µg/mL (≈ 6.22 µM)
- MIC Staphylococcus aureus MS 8684 [6]: 3.13 µg/mL (≈ 6.22 µM)
- MIC Staphylococcus aureus MS 8713 [6]: 12.5 µg/mL (≈ 24.8 µM)
- MIC Escherichia coli GN 3435 [7]: 3.13 µg/mL (≈ 6.22 µM)
- MIC Escherichia coli GN 3452 [7]: 12.5 µg/mL (≈ 24.8 µM)
- MIC Escherichia coli GN 3465 [7]: 200 µg/mL (≈ 397 µM)
- MIC Escherichia coli GN 3481 [7]: 6.25 µg/mL (≈ 12.4 µM)
- MIC Escherichia coli GN 3611 [7]: > 200 µg/mL
- MIC Escherichia coli K-1 [7]: 12.5 µg/mL (≈ 24.8 µM)
- MIC Escherichia coli K-2 [7]: 6.25 µg/mL (≈ 12.4 µM)
- MIC Escherichia coli K-3 [7]: > 200 µg/mL
- MIC Escherichia coli K-4 [7]: 3.13 µg/mL (≈ 6.22 µM)
- MIC Pseudomonas aeruginosa GN ([8]; Table 5-3, clinical isolate, strain number not given): 50 µg/mL (≈ 99.3 µM)
- MIC Pseudomonas aeruginosa GN 82 ([8]; Table 5-3, clinical isolate): 6.25 µg/mL (≈ 12.4 µM)
- MIC Pseudomonas aeruginosa GN 163 ([8]; Table 5-3, clinical isolate): 12.5 µg/mL (≈ 24.8 µM)
- MIC Pseudomonas aeruginosa GN 221 ([8]; Table 5-3, clinical isolate): 6.25 µg/mL (≈ 12.4 µM)
- MIC Pseudomonas aeruginosa GN 376 ([8]; Table 5-3, clinical isolate): 12.5 µg/mL (≈ 24.8 µM)
- MIC Pseudomonas aeruginosa GN 1035 ([8]; Table 5-3, clinical isolate): 50 µg/mL (≈ 99.3 µM)
- MIC Pseudomonas aeruginosa GN 1091 ([8]; Table 5-3, clinical isolate): 12.5 µg/mL (≈ 24.8 µM)
- MIC Pseudomonas neruginosa S-1 ([8]; Table 5-4, clinical isolate): 200 µg/mL (≈ 397 µM)
- MIC Pseudomonas neruginosa S-3 ([8]; Table 5-4, clinical isolate): 50 µg/mL (≈ 99.3 µM)
- MIC Pseudomonas neruginosa S-4 ([8]; Table 5-4, clinical isolate): 100 µg/mL (≈ 199 µM)
- MIC Klebsiella pneumoniae GN 917 [9]: 12.5 µg/mL (≈ 24.8 µM)
- MIC Klebsiella pneumoniae GN 4081 [9]: 200 µg/mL (≈ 397 µM)
- MIC Klebsiella pneumoniae GN 4117 [9]: 100 µg/mL (≈ 199 µM)
- MIC Shigella flexneri JS 11215 [10]: > 200 µg/mL
- MIC Shigella flexneri JS 11839 [10]: 6.25 µg/mL (≈ 12.4 µM)
- MIC Shigella sonnei JS 11232 [11]: 100 µg/mL (≈ 199 µM)
- MIC Shigella sonnei JS 11755 [11]: 6.25 µg/mL (≈ 12.4 µM)
- MIC Salmonella typhi-murium SL 2136 [12]: > 200 µg/mL
- MIC Proteus vulgaris [13]: < 0.4 µg/mL
- Relative activity (%), resistant activity against β-lactamase [14]: 15%

SMILES: CN1CCN(C(=O)NC(C(=O)NC2C(=O)N3C(C(=O)O)=C(CSc4nnnn4C)CSC23)c2ccccc2)C(=O)C1=O (single isomer, unassigned) [Compound No. 63]
- MIC Pseudomonas aeruginosa GN4 ([8]; Table 6-3, clinical isolate): 25 µg/mL (≈ 40.6 µM)
- MIC Pseudomonas aeruginosa GN 82 ([8]; Table 6-3, clinical isolate): 50 µg/mL (≈ 81.2 µM)
- MIC Pseudomonas aeruginosa GN 376 ([8]; Table 6-3, clinical isolate): 50 µg/mL (≈ 81.2 µM)
- MIC Pseudomonas aeruginosa GN 2565 ([8]; Table 6-3, clinical isolate): 50 µg/mL (≈ 81.2 µM)
- Relative activity (%) against β-lactamase, E. freundii GN 346 [15]: 0.2%
- Relative activity (%) against β-lactamase, Pr. vulgaris GN 76 [16]: 6%

SMILES: CCN1CCN(C(=O)NC(C(=O)NC2C(=O)N3C(C(=O)O)=C(CSc4nnc(C)s4)CSC23)c2ccc(O)cc2)C(=O)C1=O (single isomer, unassigned) [Compound No. 76]
- MIC Escherichia coli NIHJ [1]: < 0.4 µg/mL
- MIC Klebsiella pneumoniae ([2]; Table 4, standard strain): 0.79 µg/mL (≈ 1.19 µM)
- MIC Proteus vulgaris 3027 ([3]; Table 4, standard strain): 3.13 µg/mL (≈ 4.73 µM)
- MIC Pseudomonas aeruginosa I.F.O. [4]: 50 µg/mL (≈ 75.6 µM)
- MIC Staphylococcus aureus 209p ([5]; Table 4, standard strain): 1.57 µg/mL (≈ 2.37 µM)
- Relative activity (%) against β-lactamase, E. freundii GN 346 [15]: 1%
- Relative activity (%) against β-lactamase, Pr. vulgaris GN 76 [16]: 11%

SMILES: CCN1CCN(C(=O)NC(C(=O)NC2C(=O)N3C(C(=O)O)=C(COC(C)=O)CSC23)c2ccc(O)cc2)C(=O)C1=O (single isomer, unassigned) [Compound No. 81]
- MIC Escherichia coli NIHJ [1]: < 1.57 µg/mL
- MIC Klebsiella pneumoniae ([2]; Table 4, standard strain): < 1.57 µg/mL
- MIC Proteus vulgaris 3027 ([3]; Table 4, standard strain): < 1.57 µg/mL
- MIC Pseudomonas aeruginosa I.F.O. [4]: 12.5 µg/mL (≈ 21.2 µM)
- MIC Staphylococcus aureus 209p ([5]; Table 4, standard strain): < 1.57 µg/mL
- Relative activity (%) against β-lactamase, E. freundii GN 346 [15]: 0.4%
- Relative activity (%) against β-lactamase, Pr. vulgaris GN 76 [16]: 6%
